Measurements reported in PubChem BioAssay (NCI).
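Briefly, cells in 96-well plates were exposed to five compound concentrations for 48 h, and endpoints were estimated by linear interpolation. The concentration for 50% growth inhibition is given as GI50. Definition used: TGI = concentration required for complete inhibition of growth.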

Legend:
Assay in all cases: NCI tumour cell line growth inhibition, 48 h
HS 578T breast = tested on: HS 578T breast
OVCAR-5 ovarian = tested on: OVCAR-5 ovarian
SK-MEL-28 melanoma = tested on: SK-MEL-28 melanoma
OVCAR-3 ovarian = tested on: OVCAR-3 ovarian
M14 melanoma = tested on: M14 melanoma
CCRF-CEM leukemia = tested on: CCRF-CEM leukemia
MDA-MB-231 breast = tested on: MDA-MB-231 breast
A549 NSCLC = tested on: A549 NSCLC
PC-3 prostate = tested on: PC-3 prostate
UO-31 renal = tested on: UO-31 renal
SF-268 CNS = tested on: SF-268 CNS
SF-295 CNS = tested on: SF-295 CNS
SF-539 CNS = tested on: SF-539 CNS
IGROV1 ovarian = tested on: IGROV1 ovarian
CAKI-1 renal = tested on: CAKI-1 renal
LOX IMVI melanoma = tested on: LOX IMVI melanoma
SK-MEL-2 melanoma = tested on: SK-MEL-2 melanoma
MALME-3M melanoma = tested on: MALME-3M melanoma
EKVX NSCLC = tested on: EKVX NSCLC
KM12 colon = tested on: KM12 colon
DU-145 prostate = tested on: DU-145 prostate
OVCAR-8 ovarian = tested on: OVCAR-8 ovarian
NCI-H460 lung = tested on: NCI-H460 lung
RPMI-8226 leukemia = tested on: RPMI-8226 leukemia
SW-620 colon = tested on: SW-620 colon
MCF7 breast = tested on: MCF7 breast
NCI-H23 lung = tested on: NCI-H23 lung
SK-MEL-5 melanoma = tested on: SK-MEL-5 melanoma
786-0 renal = tested on: 786-0 renal
HOP-62 NSCLC = tested on: HOP-62 NSCLC
T-47D breast = tested on: T-47D breast
OVCAR-4 ovarian = tested on: OVCAR-4 ovarian
RXF 393 renal = tested on: RXF 393 renal
NCI/ADR-RES ovarian = tested on: NCI/ADR-RES ovarian
HCT-116 colon = tested on: HCT-116 colon
HCT-15 colon = tested on: HCT-15 colon
SNB-19 CNS = tested on: SNB-19 CNS
HT29 colon = tested on: HT29 colon
HCC-2998 colon = tested on: HCC-2998 colon
ACHN renal = tested on: ACHN renal
BT-549 breast = tested on: BT-549 breast
K-562 leukemia = tested on: K-562 leukemia
TK-10 renal = tested on: TK-10 renal
UACC-62 melanoma = tested on: UACC-62 melanoma
A498 renal = tested on: A498 renal
COLO 205 colon = tested on: COLO 205 colon
HL-60(TB) leukemia = tested on: HL-60(TB) leukemia
UACC-257 melanoma = tested on: UACC-257 melanoma
MDA-MB-435 = tested on: MDA-MB-435
SNB-75 CNS = tested on: SNB-75 CNS
NCI-H522 lung = tested on: NCI-H522 lung
U251 CNS = tested on: U251 CNS
SN12C renal = tested on: SN12C renal
HOP-92 NSCLC = tested on: HOP-92 NSCLC
NCI-H226 lung = tested on: NCI-H226 lung
SK-OV-3 ovarian = tested on: SK-OV-3 ovarian
MOLT-4 leukemia = tested on: MOLT-4 leukemia

## NC(=O)[C@@H](CCC(F)(F)F)N(Cc1ccc(-c2ncon2)cc1F)S(=O)(=O)c1ccc(Cl)cc1
HS 578T breast
  GI50: 28.8 µM
  TGI: > 100 µM
OVCAR-5 ovarian
  GI50: > 49.5 µM
  TGI: > 100 µM
SK-MEL-28 melanoma
  GI50: 45.5 µM
  TGI: > 100 µM
OVCAR-3 ovarian
  GI50: 23.6 µM
  TGI: > 60.5 µM
M14 melanoma
  GI50: 22.2 µM
  TGI: > 52.6 µM
CCRF-CEM leukemia
  GI50: 20.8 µM
  TGI: > 100 µM
MDA-MB-231 breast
  GI50: 36.3 µM
  TGI: > 100 µM
A549 NSCLC
  GI50: 36.7 µM
  TGI: > 100 µM
PC-3 prostate
  GI50: 12.6 µM
  TGI: > 100 µM
UO-31 renal
  GI50: 13.1 µM
  TGI: > 100 µM
SF-268 CNS
  GI50: 39.6 µM
  TGI: > 100 µM
SF-295 CNS
  GI50: 35.3 µM
  TGI: > 100 µM
SF-539 CNS
  GI50: 31 µM
  TGI: > 62.6 µM
IGROV1 ovarian
  GI50: 51.7 µM
  TGI: > 100 µM
CAKI-1 renal
  GI50: 13.7 µM
  TGI: > 62.8 µM
LOX IMVI melanoma
  GI50: 29.9 µM
  TGI: > 100 µM
SK-MEL-2 melanoma
  GI50: 29.7 µM
  TGI: > 63.9 µM
MALME-3M melanoma
  GI50: 32 µM
  TGI: > 73.7 µM
EKVX NSCLC
  GI50: > 90.3 µM
  TGI: > 100 µM
KM12 colon
  GI50: 23.1 µM
  TGI: > 56.3 µM
DU-145 prostate
  GI50: > 67.1 µM
  TGI: > 100 µM
OVCAR-8 ovarian
  GI50: 46.8 µM
  TGI: > 100 µM
NCI-H460 lung
  GI50: 30.6 µM
  TGI: > 100 µM
RPMI-8226 leukemia
  GI50: 14.5 µM
  TGI: 64.4 µM
SW-620 colon
  GI50: > 59.9 µM
  TGI: > 100 µM
MCF7 breast
  GI50: 28.4 µM
  TGI: > 100 µM
NCI-H23 lung
  GI50: 36.1 µM
  TGI: > 100 µM
SK-MEL-5 melanoma
  GI50: 15.8 µM
  TGI: 33.2 µM
786-0 renal
  GI50: > 40.5 µM
  TGI: > 59 µM
HOP-62 NSCLC
  GI50: > 43.2 µM
  TGI: > 64.5 µM
T-47D breast
  GI50: 21.3 µM
  TGI: > 78.7 µM
OVCAR-4 ovarian
  GI50: 44.5 µM
  TGI: > 100 µM
RXF 393 renal
  GI50: 20.8 µM
  TGI: > 100 µM
NCI/ADR-RES ovarian
  GI50: 47.5 µM
  TGI: > 100 µM
HCT-116 colon
  GI50: 35.3 µM
  TGI: > 61.7 µM
HCT-15 colon
  GI50: 69.6 µM
  TGI: > 100 µM
SNB-19 CNS
  GI50: > 50.6 µM
  TGI: > 100 µM
HT29 colon
  GI50: 21.3 µM
  TGI: > 58.7 µM
HCC-2998 colon
  GI50: > 68.9 µM
  TGI: > 100 µM
ACHN renal
  GI50: 26.7 µM
  TGI: > 73.2 µM
BT-549 breast
  GI50: 32.6 µM
  TGI: > 59 µM
K-562 leukemia
  GI50: 34.9 µM
  TGI: > 100 µM
TK-10 renal
  GI50: 21 µM
  TGI: > 63.5 µM
UACC-62 melanoma
  GI50: 18.2 µM
  TGI: > 50.7 µM
A498 renal
  GI50: 8.86 µM
  TGI: > 62.7 µM
COLO 205 colon
  GI50: 27.4 µM
  TGI: > 57.2 µM
HL-60(TB) leukemia
  GI50: 23.7 µM
  TGI: 65.6 µM
UACC-257 melanoma
  GI50: 27.3 µM
  TGI: > 85.6 µM
MDA-MB-435
  GI50: 21.3 µM
  TGI: > 59.1 µM
SNB-75 CNS
  GI50: 53.3 µM
  TGI: > 100 µM
NCI-H522 lung
  GI50: 48.8 µM
  TGI: > 100 µM
U251 CNS
  GI50: > 49 µM
  TGI: > 100 µM
SN12C renal
  GI50: 25.8 µM
  TGI: > 57.8 µM
HOP-92 NSCLC
  GI50: 8.88 µM
  TGI: 43.3 µM
NCI-H226 lung
  GI50: > 54.1 µM
  TGI: > 100 µM
SK-OV-3 ovarian
  GI50: > 50.7 µM
  TGI: > 89.9 µM
MOLT-4 leukemia
  GI50: 16.3 µM
  TGI: 54.7 µM
